Key:
GLS1 = molecular target: T1, GLS1 (Homo sapiens, UniProt O94925); experiment: Activity test of compounds in GLS1 coupling reaction system; assay type: biochemical; conditions: 2 nM GLS1, 4.5 mM L-glutamine, 1 hour pre-incubation at 23° C.
T1 sequence (O94925 55-669): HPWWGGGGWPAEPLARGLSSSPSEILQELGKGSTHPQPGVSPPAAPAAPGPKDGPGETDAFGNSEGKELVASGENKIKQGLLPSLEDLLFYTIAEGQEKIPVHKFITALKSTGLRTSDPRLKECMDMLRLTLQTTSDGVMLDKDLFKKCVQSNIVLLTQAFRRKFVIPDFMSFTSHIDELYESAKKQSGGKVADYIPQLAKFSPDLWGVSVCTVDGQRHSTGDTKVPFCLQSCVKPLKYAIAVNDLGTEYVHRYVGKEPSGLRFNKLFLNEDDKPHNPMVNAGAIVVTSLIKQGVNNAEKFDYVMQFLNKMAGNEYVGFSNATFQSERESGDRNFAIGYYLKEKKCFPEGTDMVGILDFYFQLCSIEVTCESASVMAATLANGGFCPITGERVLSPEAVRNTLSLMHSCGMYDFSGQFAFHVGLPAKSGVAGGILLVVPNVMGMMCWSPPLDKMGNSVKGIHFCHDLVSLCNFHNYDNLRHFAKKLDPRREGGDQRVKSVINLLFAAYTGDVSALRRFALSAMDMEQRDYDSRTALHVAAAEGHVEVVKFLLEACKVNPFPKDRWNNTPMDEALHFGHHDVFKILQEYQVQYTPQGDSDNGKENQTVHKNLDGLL
Method: Experimental Example 1: Activity Test of Compounds in GLS1 Coupling Reaction System
Preparation of Reaction Reagents: Relevant reagents should be prepared on the day of the experiment: Preparation of 1× assay buffer The final concentration of each component in the final experimental buffer was: 50 mM Tris-HCl pH 8.0, 0.25 mM EDTA, 150 mM K2HPO4, 0.1 mg/mL BSA, 1 mM DTT, 0.01% Triton X-100 Preparation of 2× experimental component solutions: The reagents were taken out and placed on ice to melt naturally for later use; 1× assay buffer was used to prepare “solution A” (solution A contains: L-glutamine, NAD+(nicotinamide adenine dinucleotide) and GLDH (glutamic acid dehydrogenase)). The final concentrations of each component in the final experimental reaction systemwere 4.5 mM L-glutamine, 2 mM NAD+ 4 U/mL GLDH. 1× assay buffer was used to prepare “solution B” - - - 2× enzyme solution (solution B contains GLS1 enzyme). The final concentration of GLS1 in the final experimental reaction system was 2 nM. Experimental Steps: The experiment plates are prepared by Labcyte ECHO before the experiment, which contain the compounds gradient concentrations and the corresponding DMSO solution: The experimental plates were taken out, and 20 μL of solution B (enzyme GLS1 solution) was added to columns 2 to 23 of the experimental plate, then 20 μL assay buffer was added to columns 1 and 24 as Min control in the experimental system. Then the experimental plates were centrifuged at 1000 rpm for 30 seconds; and sealed the membrane, and the plates were incubated at 23° C. for 1 hour. After the incubation of 1 hour, 20 μL of solution A was added to columns 1 to 24 of the experimental plates (ie, Samples were added to the whole plate). The experimental plates were centrifuged at 1000 rpm for 30 seconds. The experimental plates were placed on the SpectraMax 340PC, and the plates were continuously read for 20 minutes in dynamic mode (the reading interval was set to 1 minute).

[1] = Evaluation of compounds pharmacokinetics in mice; assay type: in vivo; conditions: mouse, plasma, female C57BL/6 mice
Method: Experimental Example 2: Evaluation of Compounds Pharmacokinetics
Experimental purpose: To test the pharmacokinetics of compounds in mice
C57BL/6 mice (female, 7-9 weeks old, Shanghai SLAC)
Experimental procedure: C57BL/6 mice (C57BL/6) were administered a clear solution obtained by dissolving test compounds via tail vein injection and intragastric administration (overnight fast, 7-9 weeks old). After administration of the test compounds, the intravenous group was at 0.0833, 0.25, 0.5, 1, 2, 4, 6, 8 and 24 h, and the gavage group was at 0.0833, 0.25, 0.5, 1, 2, 4, 6, 8 and 24, blood was collected from the mandibular vein and centrifuged to obtain plasma. LC-MS/MS method was used to determine blood drug concentration, and WinNonlin™ Version 6.3 pharmacokinetic software was used to calculate the relevant pharmacokinetic parameters by non-compartment model linear logarithmic trapezoid method.

IC50 (GLS1) [nM] | Structure (SMILES) | further results
200 to 1000 | O=C(Cc1cccnc1)Nc1nnc(NC2CCN(c3cccnn3)CC2)s1 [Example 5] | 
200 to 1000 | O=C(Cc1cc(Cl)ccc1Cl)Nc1nnc(NC2CCN(c3cccnn3)CC2)s1 [Example 7] | 
200 to 1000 | O=C(Cc1cc(Cl)ccc1F)Nc1nnc(NC2CCN(c3cccnn3)CC2)s1 [Example 8] | 
200 to 1000 | O=C(Cc1cc(OC(F)(F)F)ccc1F)Nc1nnc(NC2CCN(c3cccnn3)CC2)s1 [Example 9] | 
200 to 1000 | CO[C@H](C(=O)Nc1nnc(NC2CCN(c3cccnn3)CC2)s1)c1cccnc1 [Example 16] | 
< 200 | CO[C@H](C(=O)Nc1nnc(NC2CCN(c3cccnn3)CC2)s1)c1cc(OC(F)(F)F)ccc1F [Example 17] | bioavailability ([1]; po, intragastric vs tail vein): 91.3%; half-life ([1]; po, tail vein injection and intragastric administration, route and dose not given, read-out: T1/2 (half-life) (converted)): 2.52 h; AUC(0-inf) ([1]; route and dose not given): 26.1 µM·h; Cmax ([1]; route and dose not given, read-out: Cmax (maximum concentration)): 11.6 µM
